The target of series [1] is T1, hDDR1 (Homo sapiens, UniProt Q08345). Kind of series: KinaseProfiler radiometric biochemical kinase assay (Eurofins). Also on record: purchased Eurofins 14-942KP10. The following applies: for IC50: read-out: IC50, inhibition of DDR1 activity. As for the experimental part: The experimental procedures were performed by Eurofins. The activity of the molecules against hDDR1 and hDDR2 kinases was assessed using KinaseProfiler^67. […] The enzymatic reaction processed in the presence of Mg^2+ cations and ATP at room temperature for 40 minutes and terminated by addition of phosphoric acid. […] All the compounds were prepared in 100% DMSO. […] The biological evaluation of selectivity against non-target kinases was performed in Dundee Eurofins, using Scan Max Delta Panel [10 μM ATP] KinaseProfiler^68.
T1 sequence (Q08345 19-913): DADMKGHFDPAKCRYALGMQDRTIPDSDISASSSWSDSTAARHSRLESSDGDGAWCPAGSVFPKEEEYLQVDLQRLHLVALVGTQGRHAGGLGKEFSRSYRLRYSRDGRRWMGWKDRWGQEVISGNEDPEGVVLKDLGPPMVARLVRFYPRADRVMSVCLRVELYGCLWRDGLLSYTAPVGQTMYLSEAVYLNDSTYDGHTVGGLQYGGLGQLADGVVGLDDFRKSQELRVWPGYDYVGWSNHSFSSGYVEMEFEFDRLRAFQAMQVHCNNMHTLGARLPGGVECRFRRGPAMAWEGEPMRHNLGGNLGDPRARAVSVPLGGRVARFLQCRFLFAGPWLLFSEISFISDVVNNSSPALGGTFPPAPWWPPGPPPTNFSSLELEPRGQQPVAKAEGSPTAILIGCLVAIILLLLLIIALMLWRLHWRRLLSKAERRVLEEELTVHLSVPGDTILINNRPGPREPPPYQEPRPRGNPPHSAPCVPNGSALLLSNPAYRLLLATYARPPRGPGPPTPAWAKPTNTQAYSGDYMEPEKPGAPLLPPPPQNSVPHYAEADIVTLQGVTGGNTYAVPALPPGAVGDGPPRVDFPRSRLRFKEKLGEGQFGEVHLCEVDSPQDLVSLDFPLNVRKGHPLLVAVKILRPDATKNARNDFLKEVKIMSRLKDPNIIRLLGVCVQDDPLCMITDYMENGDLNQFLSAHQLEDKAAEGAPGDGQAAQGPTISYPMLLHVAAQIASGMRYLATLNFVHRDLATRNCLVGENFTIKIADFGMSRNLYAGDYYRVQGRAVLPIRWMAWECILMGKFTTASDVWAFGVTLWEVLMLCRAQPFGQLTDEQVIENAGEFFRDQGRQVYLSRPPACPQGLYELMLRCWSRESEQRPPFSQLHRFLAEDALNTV

Series [2] concerns the target T1, hDDR1. Kind of series: Rescreen in another biochemical assay (Thermo Fisher-PR6913A). The following applies: read-out: IC50 towards DDR1 kinase, rescreen. As for the experimental part:
In the present example, six molecules were generated, selected, and synthesized and were submitted for biological testing (e.g., within 35 days). […] Since the dose-response curves for Compounds 2 and 4 seemed likely inconsistent, additional experiments were performed to confirm the activity of these molecules towards DDR1 kinase (see FIG. 4B). […] Compounds 1 and 2 were also evaluated towards DDR2 kinase.
FIGS. 4A-4B show the structures and dose-response curves for the generated molecules. The six generated compounds were tested in a dose-dependent manner against DDR1 tyrosine kinase.

The test system of series [3] is α-actin expression in MRC-5 cells. Kind of series: MRC-5 fibrosis assay, TGF-β stimulated (Western blot). Type of series: cell-based. As for the experimental part: (§1) After 20 h growth in the reduced serum medium, the cells were treated with indicated doses of compounds for 30 minutes. Subsequently, the cells were stimulated with 10 ng/mL TGF-β (R&D Systems, 240-B-002) for 48 or 72 hours.
A general note: Immunoblotting shows a protein as a band on a membrane.

A further series is described as follows: in vitro. As for the experimental part: (§2) Cold acetonitrile (ACN) including 100 ng/mL Tolbutamide and 100 ng/mL Labetalol as internal standard (IS) were used for stop solution. 10 μL compound or control working solution/well was added to all plates (T0, T5, T10, T20, T30, T60, NCF60) except matrix blank. Dispense 80 μL/well microsome solution was added to every plate by Apricot, the mixture of microsome solution and compound were incubated at 37° C. for about 10 min. After pre-warming, dispense 10 μL/well NADPH regenerating system was added to every plate by Apricot to start reaction. The solution was then incubated at 37° C. 300 (μL/well) stop solution (cold in 4° C.) was added to terminate the reaction. The sampling plates were shaken for approximately 10 min. Samples were centrifuged at 4000 rpm for 20 min under 4° C. While centrifuging, 8×new 96-well plate were loaded with 300 μL HPLC water, then 100 μL supernatant was transferred and mixed for LC/MS/MS.

The nature of series [4]: Microsomal stability (MLM). As for the experimental part:
as §2

Series [5] has as its system CTGF expression in MRC-5 cells. Kind of series: MRC-5 fibrosis assay, TGF-β stimulated (Western blot). The series is classed as cell-based. As for the experimental part:
as §1

Series [6] relates to collagen α1 production in LX-2 cells. Kind of series: LX-2 fibrosis assay, TGF-β stimulated (Western blot). The series is classed as cell-based, human. The following applies: 0.5 to 10 μM. As for the experimental part:
Collagen α1, α-SMA, CTGF and GAPDH were traced using Western blot analysis. DMSO and SB-525334 were used as negative and positive controls, respectively.
Human hepatic stellate cells LX-2 were grown in DMEM (Invitrogen, 11960) supplied with 1% MEM Non-Essential Amino Acids (Invitrogen, 11140-050), 2% fetal bovine serum (Hyclone, SV30087.03), Penicillin (100 U/mL)-streptomycin (100 μg/mL) (Millipore, TMS-AB2-C) and 2 mM L-Glutamine (Invitrogen, 25030-001). After the cells grew in 12-well plates for 24 h, the cell culture medium was changed to the same as above except using 0.4% fetal bovine serum. After 20 h growth in the reduced serum medium, the cells were treated with indicated doses of compounds for 30 minutes. Subsequently, the cells were stimulated with 4 ng/mL TGF-β (R&D Systems, 240-B-002) for 48 h. The cells were rinsed twice with DPBS before being harvested with 100 μL RIPA buffer (Sigma, R0278) supplemented with protease inhibitor cocktail (Roche, 04693132001) at 4° C. The total protein in each sample was quantified using BCA Protein Assay Kit (Pierce™, 23227) and equal amount of total protein of each sample was subject to Western blot analysis. Antibodies used were mouse anti-α-Actin (SPM332) (sc-365970), mouse anti-CTGF (E5) (sc-365970), and mouse anti-collagen al (3G3) (sc-293182), from Santa Cruz Biotechnologies; and mouse anti-GAPDH (6C5) (EMD Millipore, MAB374).

In series [7] the test system is α-actin (α-SMA) production in LX-2 cells. Described as above. Type of series: cell-based, human. The following applies: 0.5 to 10 μM. As for the experimental part:
Collagen α1, α-SMA, CTGF and GAPDH were traced using Western blot analysis.
After 20 h growth in the reduced serum medium, the cells were treated with indicated doses of compounds for 30 minutes.

From patent US12293809B2, “Workflow for generating compounds with biological activity against a specific biological target” (INSILICO MEDICINE IP LIMITED, priority 2019, dated 2025) come the findings set out here.

Entries after “also recorded” stand apart in the source; their conditions may differ.

Turning to `Cc1ccc(CNC(=O)Cc2cccc(F)c2)cc1-c1ccc2[nH]ncc2c1` [Compound 3], the IC50 (as a rule, the concentration that gives 50% inhibition) on hDDR1 [1] was 1000 nM.
`Cc1cc2[nH]c(-c3cc(CN(C)C)cc(C(F)(F)F)c3)nc2cc1C#Cc1cncnc1` [Compound 4]: the IC50 at hDDR1 [2] is 156 nM; on hDDR1 [1], 278 nM.
In the case of `O=C(CN1CCNC2(CCN(C(=O)c3ccc4[nH]ncc4c3)CC2)C1=O)Nc1cccc(F)c1` [Compound 5], at hDDR1 [1], the “activity against DDR1 kinase (in words)” value is “inactive”.
On the same count and under the same terms, as for `Cc1ccc(NC(=O)CN2CCC2C(F)(F)F)cc1NC(=O)c1cnn2c1CCC2` (stereo not shown) [Compound 6], the entry is “inactive; also recorded: did not demonstrate any activity”.
On to `Cc1nc(Nc2ncc(C(=O)Nc3c(C)cccc3Cl)s2)cc(N2CCN(CCO)CC2)n1` [Dasatinib, dasatinib], for which the “concentration of maximum inhibition of α-actin expression” value in series [3] (MRC-5) was 10 µM.
Regarding `O=C(O)Cc1ccccc1Nc1c(Cl)cccc1Cl` [Diclofenac, diclofenac], the CLint scaled (in general, a measure of how fast metabolising enzymes remove a compound, apart from limits set by blood flow) in the series “in vitro” (Beagle, dog, microsomes) was below 13.8 mL/min/kg; in the series “in vitro” (SD, rat, microsomes), 106 mL/min/kg; in the series “in vitro” (human, microsomes), 117 mL/min/kg. Besides, the “Remaining (*NCF = 60 min)” value is recorded as 96.9% in the series “in vitro” (Beagle, dog, microsomes, 1 h); 89.8% in the series “in vitro” (SD, rat, microsomes, 1 h); 87.9% in “in vitro” (human, microsomes, 1 h); 91.8% in series [4] (CD-1, mouse, microsomes, 1 h). In addition, the “Remaining (T = 60 min)” value in “in vitro” (Beagle, dog, microsomes, 1 h) came out at 85.7%; in the series “in vitro” (SD, rat, microsomes, 1 h) it was 17.5%; in series [4] (CD-1, mouse, microsomes, 1 h) it was 50.2%.
Turning to `Cc1cccc(-c2[nH]c(C(C)(C)C)nc2-c2ccc3nccnc3c2)n1` [SB-525334, reference compound], the “effect on CTGF expression” value in series [5] (0.5 μM) is reported as “no effect”. Besides, in series [5] (10 μM), the “reduction of CTGF expression” value amounted to 1.5 fold. Also, the “reduction in α-actin expression level” value in series [3] (0.5 μM, compared to TGF+DMSO stimulation) is given as 2 fold. For the same compound, in series [3] (MRC-5), the “concentration of maximum inhibition of α-actin expression” value is 10 µM and the “dose dependence of effect on α-actin expression” value was “Unclear dose-dependent effect”. Besides, in series [6], the “effect on collagen α1 expression” value was “strongly inhibited”. Further, the “effect on α-actin expression” value in series [7] is “strongly inhibited”.
With `C[C@]12CC[C@H]3[C@@H](CCC4=CC(=O)CC[C@@]43C)[C@@H]1CC[C@@H]2O` [Testosterone, testosterone], the CLint scaled came out at 114 mL/min/kg in the series “in vitro” (Beagle, dog, microsomes); 2360 mL/min/kg in the series “in vitro” (SD, rat, microsomes); 79.7 mL/min/kg in the series “in vitro” (human, microsomes); 1620 mL/min/kg in series [4] (CD-1, mouse, microsomes). The “Remaining (*NCF = 60 min)” value amounted to 88.6% in “in vitro” (DLM 0.5, no co-factor); 82.4% in the series “in vitro” (HLM 0.5, no co-factor); 86.8% in the series “in vitro” (RLM 0.5, no co-factor); 75.4% in series [4] (MLM 0.5, no co-factor). The “Remaining (T = 60 min)” value in the series “in vitro” (DLM 0.5, with NADPH) was found to be 9.5%; in “in vitro” (HLM 0.5, with NADPH), 6.9%; in the series “in vitro” (HLM 0.5, with NADPH, listed as testosterone) it was 6.9%; in “in vitro” (RLM 0.5, with NADPH), 0.0%; in series [4] (MLM 0.5, with NADPH), 0.0%. In addition, the half-life (as a rule, the time needed for the level to fall by half in the phase considered) in series [4] (CD-1, mouse, microsomes) worked out at 3.4 min.
